Measured values: US20150105252A1, “SUBSTITUTED PYRAZOLES AS HERBICIDES” (E I DU PONT DE NEMOURS AND COMPANY, priority 2013, published 2015)

Columns and labels:
[1] = tested on: kochia; experiment: Test C preemergence; assay type: in vivo, Kochia scoparia; conditions: for Plant response rating (scale of 0 to 100), Kochia: Preemergence, 250 g ai/ha; for Kochia plant response rating / Plant response rating, Kochia: preemergence; for Plant response rating, Kochia: 62 g ai/ha, scale 0 to 100, 0 = no effect, 100 = complete control
Description: Seeds of plant species selected from blackgrass (Alopecurus myosuroides), ryegrass, Italian (Italian ryegrass, Lolium multiflorum), wheat (winter wheat, Triticum aestivum), galium (catchweed bedstraw, Galium aparine), corn (Zea mays), crabgrass, large (large crabgrass, Digitaria sanguinalis), foxtail, giant (giant foxtail, Setaria faberii), johnsongrass (Sorghum halepense), lambsquarters (Chenopodium album), morningglory (Ipomoea coccinea), nutsedge, yellow (yellow nutsedge, Cyperus esculentus), pigweed (redroot pigweed, Amaranthus retroflexus), ragweed (common ragweed, Ambrosia elation), soybean (Glycine max), barnyardgrass (Echinochloa crus-galli), oilseed rape (Brassica napus), waterhemp (common waterhemp, Amaranthus rudis), oat, wild (wild oat, Avena fatua), kochia (Kochia scoparia), Surinam grass (Brachiaria decumbens), foxtail, green (green foxtail, Setaria viridis), goosegrass (Eleusine indica), bromegrass, downy (downy bromegrass, Bromus tectorum), nightshade (eastern black nightshade, Solanum ptycanthum), cocklebur (common cocklebur, Xanthium strumarium), cupgrass, woolly (woolly cupgrass, Eriochloa villosa), bermudagrass (Cynodon dactylon), sunflower, (common oilseed sunflower, Helianthus annuus), Russian thistle (Salsola kali), and velvetleaf (Abutilon theophrasti) were planted into a blend of loam soil and sand and treated preemergence with test chemicals formulated in a non-phytotoxic solvent mixture which included a surfactant.
At the same time, plants selected from these crop and weed species and also chickweed (common chickweed, Stellaria media), canarygrass (littleseed canarygrass, Phalaris minor), and deadnettle (henbit deadnettle, Lamium amplexicaule), were planted in pots containing Redi-Earth® planting medium (Scotts Company, 14111 Scottslawn Road, Marysville, Ohio 43041) comprising spaghnum peat moss, vermiculite, wetting agent and starter nutrients and treated with postemergence applications of test chemicals formulated in the same manner. Plants ranged in height from 2 to 18 cm (1- to 4-leaf stage) for postemergence treatments. Treated plants and controls were maintained in a greenhouse for 13 to 15 days, after which time all species were compared to controls and visually evaluated. Plant response ratings, summarized in Table C, are based on a scale of 0 to 100 where 0 is no effect and 100 is complete control. A dash (-) response means no test result.

[2] = tested on: giant foxtail; experiment: Test F preemergence; assay type: in vivo, Setaria faberii
Description: Seeds of plant species selected from corn (Zea mays), soybean (Glycine max), velvetleaf (Abutilon theophrasti), lambsquarters (Chenopodium album), wild poinsettia (Euphorbia heterophylla), pigweed, palmer (palmer pigweed, Amaranthus palmeri), common waterhemp (Amaranthus rudis), surinam grass (Brachiaria decumbens), large crabgrass (Digitaria sanguinalis), crabgrass, Brazil (Brazilian crabgrass, Digitaria horizontalis), fall panicum (Panicum dichotomiflorum), giant foxtail (Setaria faberii), green foxtail (Setaria viridis), goosegrass (Eleusine indica), johnsongrass (Sorghum halepense), common ragweed (Ambrosia elation), barnyardgrass (Echinochloa crus-galli), southern sandbur (Cenchrus echinatus), arrowleaf sida (Sida rhombifolia), Italian ryegrass (Lolium multiflorum), dayflower, VA (Virginia (VA) dayflower, Commelina virginica), field bindweed (Convolvulus arvensis), cocklebur (common cocklebur, Xanthium strumarium), morningglory (Ipomoea coccinea), nightshade (eastern black nightshade, Solanum ptycanthum), kochia (Kochia scoparia), yellow nutsedge (Cyperus esculentus), and hairy beggarticks (Bidens pilosa), were planted into a silt loam soil and treated preemergence with test chemicals formulated in a non-phytotoxic solvent mixture which included a surfactant.
At the same time, plants from these crop and weed species and also horseweed (Canada horseweed, Conyza canadensis), smartweed (ladysthumb smartweed, Polygonum persicaria), waterhemp_RES1, (ALS & Triazine resistant common waterhemp, Amaranthus rudis), and waterhemp_RES2, (ALS & HPPD resistant common waterhemp, Amaranthus rudis) were treated with postemergence applications of test chemicals formulated in the same manner. Plants ranged in height from 2 to 18 cm for postemergence treatments (1- to 4-leaf stage). Treated plants and controls were maintained in a greenhouse for 14 to 21 days, after which time all species were compared to controls and visually evaluated. Plant response ratings, summarized in Table F, are based on a scale of 0 to 100 where 0 is no effect and 100 is complete control. A dash (-) response means no test result.

[3] = tested on: kochia; experiment: Test A postemergence; assay type: in vivo, Kochia scoparia
Summary of the method: (§1)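 Seeds were sown in a loam soil–sand blend and given a directed soil spray preemergence; postemergence plants at 2–10 cm, one- to two-leaf stage, were sprayed with compound in non-phytotoxic solvent with surfactant. After about 10 days in a greenhouse, injury was visually rated against untreated controls (0 = no effect, 100 = complete control).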

[4] = tested on: Italian ryegrass; experiment: Test A postemergence; assay type: in vivo, Lolium multiflorum
Summary of the method: as §1

[5] = 31 g ai/ha, scale 0 to 100 (0 no effect, 100 complete control), 13 to 15 days
[6] = 125 g ai/ha, scale 0 to 100, 0 is no effect, 100 is complete control
[7] = Preemergence, 62 g ai/ha, scale 0 to 100
[8] = Preemergence, 125 g ai/ha, scale 0 to 100
[9] = preemergence, 16 g ai/ha, scale 0 to 100, 100 is complete control
[10] = Postemergence, 500 g ai/ha, 0 to 100 scale (0 no effect, 100 complete control)
[11] = postemergence, 125 g ai/ha, about 10 days, visual rating on 0 to 100 scale (0 no effect, 100 complete control)
[12] = Preemergence, 250 g ai/ha, scale 0 to 100
[13] = Postemergence, 125 g ai/ha, 0 to 100 scale, 0 no effect, 100 complete control

CCc1cc(C(=O)NOC(C)C)nn1Cc1cccc(OC(F)(F)F)c1 [Compound 70]
Plant response rating (scale of 0 to 100), Kochia [1]: 98 | Kochia plant response rating [1, 5]: 40 | Plant response rating, Kochia ([1]; 13 to 15 days): 65 | Kochia plant response rating [1, 6]: 98

CCONC(=O)c1cc(CC)n(Cc2cccc(OC(F)(F)F)c2)n1 [Compound 72]
Plant response rating (scale of 0 to 100), Kochia [1]: 80 | Kochia plant response rating [1, 5]: 5 | Plant response rating, Kochia ([1]; 13 to 15 days): 45 | Kochia plant response rating [1, 6]: 50

Cc1cc(C(=O)NCC(F)(F)F)nn1Cc1ccnc(C(F)(F)F)c1 [Compound 74]
Plant response rating (scale of 0 to 100), Kochia [1]: 98 | Kochia plant response rating [1, 5]: 98 | Plant response rating, Kochia ([1]; 13 to 15 days): 98 | Kochia plant response rating [1, 6]: 98

CCc1cc(-c2ccc(C(F)(F)F)cc2)nn1Cc1ccnc(C(F)(F)F)c1 [Compound 110]
Plant response rating, Giant Foxtail ([2]; Preemergence, 31 g ai/ha, scale 0 to 100): 70 | Plant response rating, Giant Foxtail [2, 7]: 95 | Plant response rating, Giant Foxtail [2, 8]: 98 | Plant response rating, Giant Foxtail ([2]; preemergence, 8 g ai/ha, scale 0 to 100, 100 is complete control): 25 | Plant response rating, Giant Foxtail [2, 9]: 40

CCc1cc(C(=O)NOC(C)C)nn1Cc1ccnc(OC(F)F)c1 [Compound 126]
Kochia plant response rating [3, 10]: 100 | Kochia plant response rating [3, 11]: 100 | Italian Ryegrass plant response rating [4, 10]: 100 | Italian Ryegrass plant response rating [4, 11]: 90

CCCc1cc(C(=O)NCC(F)(F)F)nn1Cc1ccnc(OC(F)F)c1 [Compound 127]
Kochia plant response rating [3, 10]: 100 | Kochia plant response rating [3, 11]: 90 | Italian Ryegrass plant response rating [4, 10]: 90 | Italian Ryegrass plant response rating [4, 11]: 80

CCOc1cc(C(=O)NCC(F)(F)F)nn1Cc1ccnc(OC(F)F)c1 [Compound 128]
Kochia plant response rating [3, 10]: 90 | Kochia plant response rating [3, 11]: 90 | Italian Ryegrass plant response rating [4, 10]: 100 | Italian Ryegrass plant response rating [4, 11]: 90

CCCNC(=O)c1cc(OCC)n(Cc2ccnc(OC(F)F)c2)n1 [Compound 136]
Kochia plant response rating [3, 10]: 90 | Kochia plant response rating [3, 11]: 90 | Italian Ryegrass plant response rating [4, 10]: 90 | Italian Ryegrass plant response rating [4, 11]: 80

CCCc1cc(C(=O)NC(C)C)nn1Cc1cc(C(F)(F)F)nn1C [Compound 201]
Plant response rating, Giant Foxtail [2, 7]: 75 | Plant response rating, Giant Foxtail [2, 8]: 75 | Plant response rating, Giant Foxtail [2, 12]: 100 | Plant response rating, Giant Foxtail [2, 9]: 0

CCCc1cc(C(=O)NC2CC2)nn1Cc1ccnc(OC(F)F)c1 [Compound 205]
Kochia plant response rating [3, 13]: 90 | Kochia plant response rating [3, 10]: 90 | Italian Ryegrass plant response rating [4, 13]: 70 | Italian Ryegrass plant response rating [4, 10]: 100

CCc1cc(C(=O)NCC(F)(F)F)nn1Cc1ccnc(Br)c1 [Compound 224]
Plant response rating, Giant Foxtail [2, 7]: 40 | Plant response rating, Giant Foxtail [2, 8]: 75 | Plant response rating, Giant Foxtail [2, 12]: 98
